From patent US20220298141A1, “ENZYME INHIBITORS” (KALVISTA PHARMACEUTICALS LIMITED, priority 2019, published 2022)

Tests used:
[1] = molecular target: T1, Human Factor XIIa (Homo sapiens, UniProt P00748); assay: Determination of Factor XIIa inhibitory activity in vitro (fluorogenic substrate H-DPro-Phe-Arg-AFC); type: biochemical; conditions: Human Factor XIIa (Enzyme Research Laboratories), 25° C., read-out: Human FXIIa IC50
T1 construct: purchased Enzyme Research Laboratories
T1 sequence (P00748 373-615 limits assumed): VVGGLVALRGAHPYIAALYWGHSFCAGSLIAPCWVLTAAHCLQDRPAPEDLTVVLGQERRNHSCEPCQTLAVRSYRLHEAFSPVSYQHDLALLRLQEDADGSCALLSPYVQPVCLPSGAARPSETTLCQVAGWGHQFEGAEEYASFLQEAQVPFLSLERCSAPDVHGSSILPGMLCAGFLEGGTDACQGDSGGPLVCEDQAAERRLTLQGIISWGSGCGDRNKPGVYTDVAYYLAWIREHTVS
T1 sequence (P00748 20-372 partner limits assumed): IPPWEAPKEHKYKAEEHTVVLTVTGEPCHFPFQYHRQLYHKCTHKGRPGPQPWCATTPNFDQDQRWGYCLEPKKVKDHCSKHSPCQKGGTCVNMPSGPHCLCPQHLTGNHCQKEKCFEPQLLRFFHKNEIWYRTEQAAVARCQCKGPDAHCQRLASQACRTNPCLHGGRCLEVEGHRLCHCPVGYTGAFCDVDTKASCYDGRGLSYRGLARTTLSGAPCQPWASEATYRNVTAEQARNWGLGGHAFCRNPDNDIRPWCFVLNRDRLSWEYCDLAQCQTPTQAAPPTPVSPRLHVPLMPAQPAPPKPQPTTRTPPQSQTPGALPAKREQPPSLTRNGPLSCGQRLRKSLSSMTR
How it was run: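 In vitro inhibition of human Factor XIIa (sourced from Enzyme Research Laboratories) was measured by incubating the enzyme at 25° C. with the fluorogenic substrate H-DPro-Phe-Arg-AFC across a range of test compound concentrations. The initial reaction rate, taken as residual enzyme activity, was followed by the […], and IC50 values were calculated.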

[2] = molecular target: T2, Human FXIa (Homo sapiens, UniProt P03951); assay: Determination of FXIa inhibitory activity in vitro (fluorogenic substrate Z-Gly-Pro-Arg-AFC); type: biochemical; conditions: Selectivity, Human FXIa (Enzyme Research Laboratories), 25° C.
T2 construct: purchased Enzyme Research Laboratories
T2 sequence (P03951 388-625 limits assumed): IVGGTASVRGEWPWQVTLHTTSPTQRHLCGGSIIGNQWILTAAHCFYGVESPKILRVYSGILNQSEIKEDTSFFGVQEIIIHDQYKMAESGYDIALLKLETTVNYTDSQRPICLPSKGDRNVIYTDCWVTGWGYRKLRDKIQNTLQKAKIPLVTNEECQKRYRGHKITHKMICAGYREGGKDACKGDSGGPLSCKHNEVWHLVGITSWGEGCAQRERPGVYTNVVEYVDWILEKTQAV
T2 sequence (P03951 19-387 partner limits assumed): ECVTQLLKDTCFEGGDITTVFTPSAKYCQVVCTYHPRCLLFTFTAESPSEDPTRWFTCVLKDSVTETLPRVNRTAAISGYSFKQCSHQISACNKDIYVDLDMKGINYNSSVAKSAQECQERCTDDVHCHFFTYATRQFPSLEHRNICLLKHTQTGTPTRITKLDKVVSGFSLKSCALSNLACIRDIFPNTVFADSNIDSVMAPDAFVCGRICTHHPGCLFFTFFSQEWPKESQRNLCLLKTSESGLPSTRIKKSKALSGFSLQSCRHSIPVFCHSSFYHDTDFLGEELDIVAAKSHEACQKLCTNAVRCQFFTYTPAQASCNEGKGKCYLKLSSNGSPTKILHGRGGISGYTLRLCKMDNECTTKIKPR

Compound	IC50 [1] [µM]	IC50 [2] [µM]
CN1CCC(CNc2nccnc2C(=O)NCc2ccc3c(N)nccc3c2)CC1 [Example 4.03, N-((1-aminoisoquinolin-6-yl)methyl)-3-(((1-methylpiperidin-4-yl)methyl)amino)pyrazine-2-carboxamide]	0.3 to 1	> 40
CN1CCC(CNc2cncc(C(=O)NCc3ccc4c(N)nccc4c3)n2)CC1 [Example 4.04]	1 to 3	> 40
CN1CCC(CNc2cnc(C(=O)NCc3ccc4c(N)nccc4c3)cn2)CC1 [Example 4.05]	3 to 10	> 40
COc1ccc(C(=O)NCc2ccc3c(N)nccc3c2)c(NCC2CCN(C)CC2)n1 [Example 4.06]	1 to 3	> 40
CN1CCC(CNc2nc(Cl)ccc2C(=O)NCc2ccc3c(N)nccc3c2)CC1 [Example 4.07]	0.3 to 1	23.6
CN1CCC(CNc2nccc(Cl)c2C(=O)NCc2ccc3c(N)nccc3c2)CC1 [Example 4.08]	10 to 40	> 40
CN1CCC(CNc2ncc(Br)cc2C(=O)NCc2ccc3c(N)nccc3c2)CC1 [Example 4.09]	< 0.3	> 40
CN1CCC(CNc2ncc(C3CC3)cc2C(=O)NCc2ccc3c(N)nccc3c2)CC1 [Example 4.10]	0.3 to 1	> 40
CN1CCC(CNc2ncc(-c3cccnc3)cc2C(=O)NCc2ccc3c(N)nccc3c2)CC1 [Example 4.11, N-((1-aminoisoquinolin-6-yl)methyl)-6-(((1-methylpiperidin-4-yl)methyl)amino)-[3,3′-bipyridine]-5-carboxamide]	0.3 to 1	> 40
COc1cnc(NCC2CCN(C)CC2)c(C(=O)NCc2ccc3c(N)nccc3c2)c1 [Example 4.12]	1 to 3	> 40
Cc1ccc(C(=O)NCc2ccc3c(N)nccc3c2)c(NCC2CCN(C)CC2)n1 [Example 4.13]	0.3 to 1	> 40
Cc1ccnc(NCC2CCN(C)CC2)c1C(=O)NCc1ccc2c(N)nccc2c1 [Example 4.14]	10 to 40	> 40
CN1CCC(CNc2nc(-c3ccccc3)ccc2C(=O)NCc2ccc3c(N)nccc3c2)CC1 [Example 4.15]	1 to 3	> 40
CN1CCC(CNc2nc(-c3cccnc3)ccc2C(=O)NCc2ccc3c(N)nccc3c2)CC1 [Example 4.16]	0.3 to 1	> 40
CN1CCC(CNc2nc(C3CC3)ccc2C(=O)NCc2ccc3c(N)nccc3c2)CC1 [Example 4.17]	1 to 3	> 40
CN1CCC(CNc2ncc(-c3ccccc3)nc2C(=O)NCc2ccc3c(N)nccc3c2)CC1 [Example 4.18]	0.3 to 1	23.3
CN1CCC(CNc2nc(Cl)c(Cl)cc2C(=O)NCc2ccc3c(N)nccc3c2)CC1 [Example 4.19]	< 0.3	> 40
CN1CCC(CNc2ncc(-c3cnn(C)c3)nc2C(=O)NCc2ccc3c(N)nccc3c2)CC1 [Example 4.20]	0.3 to 1	12.7
Cc1cc(C(=O)NCc2ccc3c(N)nccc3c2)c(NCC2CCN(C)CC2)nc1C [Example 4.21]	0.3 to 1	> 40
Nc1nccc2cc(CNC(=O)c3nccnc3Nc3ccc(N4CCNCC4)cc3)ccc12 [Example 4.22]	10 to 40	> 40
CN1CCc2c(cccc2Nc2nccnc2C(=O)NCc2ccc3c(N)nccc3c2)C1 [Example 4.23]	0.3 to 1	> 40
CN1CCc2cc(Nc3nccnc3C(=O)NCc3ccc4c(N)nccc4c3)ccc2C1 [Example 4.24]	0.3 to 1	> 40
Nc1nccc2cc(CNC(=O)c3nccnc3NCC3CCN(CCO)CC3)ccc12 [Example 4.25]	0.3 to 1	> 40
Nc1nccc2cc(CNC(=O)c3cnc(N4CCN(c5ccncc5)CC4)c(Cl)c3)ccc12 [Example 8.08]	10 to 40	> 40
CN(CC1CCN(c2ccncc2)CC1)c1ncc(C(=O)NCc2ccc3c(N)nccc3c2)cc1Cl [Example 8.09, N-[(1-amino-6-isoquinolyl)methyl]-5-chloro-6-[methyl-[[1-(4-pyridyl)-4-piperidyl]methyl]amino]pyridine-3-carboxamide]	1 to 3	> 40
N#Cc1cccc(CNc2ncc(C(=O)NCc3ccc4c(N)nccc4c3)cc2Cl)c1 [Example 11.28]	10 to 40	> 40

Compound	IC50 [1] [µM]	IC50 [2] [µM]
COCCNc1ncc(C(=O)NCc2ccc3c(N)nccc3c2)cc1Cl [Example 11.29]	10 to 40	> 40
CN(C)CCNc1ncc(C(=O)NCc2ccc3c(N)nccc3c2)cc1Cl [Example 11.30]	10 to 40	> 40
Nc1nccc2cc(CNC(=O)c3cnc(NCCn4cncn4)c(Cl)c3)ccc12 [Example 11.31]	10 to 40	> 40
CN1C(C)(C)CC(Nc2ncc(C(=O)NCc3ccc4c(N)nccc4c3)cc2Cl)CC1(C)C [Example 11.32]	10 to 40	> 40
CN1CCC(Nc2ncc(C(=O)NCc3ccc4c(N)nccc4c3)cc2Cl)CC1 [Example 11.33]	10 to 40	> 40
Nc1nccc2cc(CNC(=O)c3cnc(NC4CCNCC4)c(Cl)c3)ccc12 [Example 11.34]	10 to 40	> 40
CN1CCC(Nc2ncc(C(=O)NCc3ccc4c(N)nccc4c3)cc2Cl)CC1=O (centres unmarked) [Example 11.35]	10 to 40	> 40
CC(C)N1CCC(Nc2ncc(C(=O)NCc3ccc4c(N)nccc4c3)cc2Cl)CC1 [Example 11.36]	3 to 10	> 40
CC(C)CN1CCC(Nc2ncc(C(=O)NCc3ccc4c(N)nccc4c3)cc2Cl)CC1 [Example 11.37]	10 to 40	> 40
CS(=O)(=O)N1CCC(Nc2ncc(C(=O)NCc3ccc4c(N)nccc4c3)cc2Cl)CC1 [Example 11.38]	10 to 40	> 40
CC(=O)N1CCC(Nc2ncc(C(=O)NCc3ccc4c(N)nccc4c3)cc2Cl)CC1 [Example 11.39]	10 to 40	> 40
Nc1nccc2cc(CNC(=O)c3cnc(NC4CCN(c5nccs5)CC4)c(Cl)c3)ccc12 [Example 11.40]	10 to 40	> 40
COCCN1CCC(Nc2ncc(C(=O)NCc3ccc4c(N)nccc4c3)cc2Cl)CC1 [Example 11.41]	10 to 40	> 40
Nc1nccc2cc(CNC(=O)c3cnc(NC4CCN(C5CC5)CC4)c(Cl)c3)ccc12 [Example 11.42]	10 to 40	> 40
Nc1nccc2cc(CNC(=O)c3cnc(OCCN4CCCCC4)c(Cl)c3)ccc12 [Example 13.26, N-((1-aminoisoquinolin-6-yl)methyl)-5-chloro-6-(2-(piperidin-1-yl)ethoxy)nicotinamide]	3 to 10	> 40
Nc1nccc2cc(CNC(=O)c3cnc(OCCCN4CCCCC4)c(Cl)c3)ccc12 [Example 13.27]	3 to 10	> 40
Nc1nccc2cc(CNC(=O)c3cc(Cl)cnc3N3CCN(c4ncccn4)CC3)ccc12 [Example 16.04]	10 to 40	> 40
CC(=O)NCCN1CCN(c2ncc(Cl)cc2C(=O)NCc2ccc3c(N)nccc3c2)CC1 [Example 16.05]	3 to 10	> 40
Nc1nccc2cc(CNC(=O)c3ccc(CN4CCN(c5ccncc5)CC4)c(Cl)c3)ccc12 [Example 29.07, N-((1-aminoisoquinolin-6-yl)methyl)-3-chloro-4-((4-(pyridin-4-yl)piperazin-1-yl)methyl)benzamide]	10 to 40	21
Nc1nccc2cc(CNC(=O)c3cnc(CN4CCN(c5ccncc5)CC4)c(Cl)c3)ccc12 [Example 29.08, N-[(1-amino-6-isoquinolyl)methyl]-5-chloro-6-[[4-(4-pyridyl)piperazin-1-yl]methyl]pyridine-3-carboxamide]	10 to 40	> 40
CN1CCC(CNc2ncc(Cl)cc2C(=O)NCc2c(Cl)cccc2-n2cnnn2)CC1 [Example 33.01, 5-Chloro-N-{[2-chloro-6-(1,2,3,4-tetrazol-1-yl)phenyl]methyl}-2-{[(1-methylpiperidin-4-yl)methyl]amino}pyridine-3-carboxamide]	3 to 10	> 40
CN1CCC(CNc2nccnc2C(=O)Nc2ccc3c(c2)C(=O)NC3)CC1 [Example 33.02]	10 to 40	20
CN1CCC(CNc2nccnc2C(=O)Nc2ccc3nc[nH]c(=O)c3c2)CC1 [Example 33.03]	10 to 40	20
CN1CCC(CNc2nccnc2C(=O)Nc2ccc3ccnc(N)c3c2)CC1 [Example 33.04]	10 to 40	> 40
CCOC(=O)c1cn(-c2ccc(OC)c(F)c2CNC(=O)c2nccnc2NCC2CCN(C)CC2)nn1 [Example 33.05]	3 to 10	33.5
CN1CCC(CNc2nccnc2C(=O)NCCc2cnc[nH]2)CC1 [Example 33.06]	10 to 40	20
